Measurements from patent publication US20040167131A1, “Inhibitors of factor Xa and other serine proteases involved in the coagulation cascade” (Pfizer Inc., priority 2002, published 2004).
pIC50: −log10 of the molar value.

Assays:
[1] = tested on: human plasma; test: Determination of Prothrombin Time (PT); format: biochemical; conditions: concentration required to increase the clotting time by 2-fold, human tissue thromboplastin
Experimental: The prothrombin time (PT) is a measure of extrinsic and common pathway factors. In this assays, human tissue thromboplastin is added to human plasma which activates pathway factors, including factor X activation to factor Xa, leading to clot formation. Significant inhibition of factor Xa, by a small molecule inhibitor, will reduce the conversion of prothrombin to thrombin and thereby increase the time to clot formation in this assay. The value 2 X PT is the concentration of the inhibitor required to increase the clotting time by 2-fold.

[2] = molecular target: T1, human factor Xa (Homo sapiens, UniProt P00742); test: Determination of Factor Xa IC50 (cleavage of fluorogenic substrate F-S2765); format: biochemical; conditions: 3 pM human factor Xa; read-out: FXa 3 pM IC50
T1 construct: purchased Enzyme Research Laboratories
T1 sequence (P00742 235-488 limits assumed): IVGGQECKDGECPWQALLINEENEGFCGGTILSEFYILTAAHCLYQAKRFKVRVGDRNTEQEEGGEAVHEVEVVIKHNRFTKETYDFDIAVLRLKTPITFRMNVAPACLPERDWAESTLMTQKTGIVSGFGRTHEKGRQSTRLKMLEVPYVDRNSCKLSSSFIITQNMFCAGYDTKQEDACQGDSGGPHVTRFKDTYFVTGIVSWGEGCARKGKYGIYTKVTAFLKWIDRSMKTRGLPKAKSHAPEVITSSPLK
T1 sequence (P00742 41-179 partner limits assumed): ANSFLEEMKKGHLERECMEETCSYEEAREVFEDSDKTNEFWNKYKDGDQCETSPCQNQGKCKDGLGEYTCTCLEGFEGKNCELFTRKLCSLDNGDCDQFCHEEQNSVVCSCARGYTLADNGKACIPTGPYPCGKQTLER
Experimental: The ability of compounds to act as inhibitors of human factor Xa catalytic activity was assessed by determination of that concentration of test substance that inhibited by 50% (IC50) the ability of human factor Xa to cleave the fluorogenic substrate F-S2765 (N-α-Z-D-Arg-Gly-Arg-pNA HCl, California Peptide Research). […] The IC50 was determined at 3 pM and/or 30 pM concentrations of human factor Xa (Enzyme Research Laboratories). These concentrations were achieved by diluting a stock solution of human factor Xa in the appropriate amount of buffer containing 10 mM HEPES, 150 mM NaCl, and 0.1% BSA at pH 7.4 (HBSA buffer). Accordingly, 73 μL of the factor Xa/buffer solution was added to 2.5 μL of DMSO-reconstituted compound and incubated for 55 minutes at room temperature. After warming to 37° C. for am additional 5 minutes, 50 μL of rewarmed substrate was added and the IC50 determined by monitoring the increase in absorbance at 390 nm excitation/460 nm emission (455 nm cutoff) in a fluorometric plate reader or 30 minutes.

[3] = tested on: rat; conditions: arteriovenous shunt and venous stasis models; cited from earlier work
[4] = tested on: canine coronary artery; conditions: canine coronary artery electrolytic lesion model; cited from earlier work
[5] = tested on: dog; conditions: adjunct to recombinant tissue plasminogen activator; cited from earlier work
[6] = tested on: rabbit; conditions: rabbit model of venous thrombosis; cited from earlier work

For `CS(=O)(=O)c1ccccc1-c1ccc(NC(=O)C2(NC(=O)Nc3ccc(Cl)cc3)CCCC2)cc1` [Example 1, 1-[3-(4-Chloro-phenyl)-ureido]-cyclopentanecarboxylic acid (2′-methanesulfonyl-biphenyl-4-yl)-amide], the “PT Conc. 2X Prolong.” value [1] was 13.45 µM and the pIC50 [2] was 7.42.
For `CC(=N)N1CC[C@H](Oc2ccc([C@H](Cc3ccc4ccc(C(=N)N)cc4c3)C(=O)O)cc2)C1` [DX9065a], the “inhibition of thrombus formation” value [3] is listed as “inhibition of thrombus formation was achieved at doses that had little effect on APTT”.
For “rTAP: recombinant tick anticoagulant peptide, a protein or polypeptide factor Xa inhibitor (YNRLCIKPRDWIDECDSNEGGERAYFRNGKGGCDSFWICPEDHTGADYYSSYRDCFNACI; UniProt P17726 1-60, looked up)”, the “thrombus mass and time to occlusion” value [4] is listed as “reduce thrombus mass and time to occlusion”, the “clot lysis and reocclusion” value [5] is listed as “accelerate the recombinant tissue plasminogen activator mediated clot lysis and prevent acute reocclusion” and the fibrin deposition [6] is listed as “reduce fibrin deposition”.
